Measurements from US20250195530A1, “POLQ INHIBITORS” (ASTRAZENECA AB, priority 2022, published 2025).

tested on: DLD-1 BRCA2−/− cells; assay: Homologous recombination synthetic lethal inhibition of proliferation, DLD-1 BRCA2-/- (Cell Titre Glo 3D); format: cell-based; conditions: DLD-1 BRCA2-/- proliferation; column head only partly shown
Description: This assay identifies anti-proliferative effects of POLQ compounds in the homologous recombination deficient colorectal cell line DLD-1 BRCA2−/− over 8-9 population doublings (7 days for DLD-1 and 12 days for DLD-1 BRCA2−/−). DLD1 BRCA2 wt are used as a control to detect cell toxic effects not specific to homologous recombination deficiency.
DLD-1 BRCA2−/− and DLD-1 cells were kept in continuous culture in Assay Medium (RPMI 1640 phenol red free (Sigma R7509) containing 1% GlutaMAX (Gibco 35050) and 10% Foetal Bovine Serum (Gibco 10270-106)). On the day of the assay cells in culture of ˜80-90% confluent were used. Cell monolayers were washed with 10 mL PBS, then removed and added 2 mL TrypLE Express (Gibco 12604). The cells with TrypLE Express were incubated for 5 minutes in cell culture incubator and then the detached cells resuspend in 15 mL Assay Medium. Cells were counted using a ViCell and the cell images were monitored for clumps of cells, ideally they should be single or <3 cell clusters. The cells were diluted to 3,000 cells/mL of DLD-1 BRCA2−/− and 1,500 cells/mL of DLD-1 in Assay Medium and 100 μL added per well of transparent bottomed, black, tissue culture-treated 96-well plates (CoStar, No. 3904) Assay Ready Plates. The Assay Ready Plates contain a 10 point 10 μM to 0.51 nM dose range with three-fold dilutions in DMSO with a final volume of 100 nL. The plates were incubated at 37° C. with 5% C02 for 6 days. On day 6, 100 μL/well of Assay Medium was added to duplicate Assay Ready Plates. 90 μL of culture medium was removed from the cell plates and replenished with the Assay Media and compounds from the duplicate Assay Ready Plates using the Bravo. The plates were further incubated at 37° C. with 5% CO2. On day 7 the plates containing DLD-1 and Cell Titre Glo 3D (Promega G9683) were equilibrated to room temperature, then 60 μL of Cell Titre Glo 3D was added per well and incubated on a shaking platform for 30 min. Plates were read on the Envision measuring luminescence for 1 second per well. On day 12 the plates containing DLD-1 BRCA2−/− cells and Cell Titre Glo 3D (Promega G9683) were equilibrated to room temperature, then 60 μL Cell Titre Glo 3D added per well and incubated on a shaking platform for 30 min. Plates were read on the Envision measuring luminescence for 1 second per well. The data was exported into a suitable software package (such as Genedata) to perform curve fitting analysis. Inhibition of cell proliferation was expressed as an IC5o value and was determined by calculation of the concentration of compound that was required to give a 50% reduction of the average maximum Total Intensity signal.

Question: Which “POLQ PD Prolif Lumin” value does the source give for CC(CCOc1ccc(-c2nc3c(OC4(C)CC4)ncnc3n2Cc2cccc(F)c2F)c(Cl)c1)C(=O)O (single isomer, unassigned) [Example T262, 4-(3-chloro-4-(9-(2,3-difluorobenzyl)-6-(1-methylcyclopropoxy)-9H-purin-8-yl)phenoxy)-2-methylbutanoic acid] here?
Answer: The value was 6.3.

Question: CC(CCOc1ccc(-c2nc3c(OC4(C)CC4)ncnc3n2Cc2cccc(Cl)c2F)c(Cl)c1)C(=O)O (single isomer, unassigned) [Example T271, 4-(3-chloro-4-(9-(3-chloro-2-fluorobenzyl)-6-(1-methylcyclopropoxy)-9H-purin-8-yl)phenoxy)-2-methylbutanoic acid] was tested. Which “POLQ PD Prolif Lumin” value did it give?
Answer: The value was 6.4.

Question: How did the “POLQ PD Prolif Lumin” value turn out when CC(CCOc1ccc(-c2nc3c(OC4(C)CC4)ncnc3n2Cc2cc(F)cc(Cl)c2)c(Cl)c1)C(=O)O (single isomer, unassigned) [Example T273, 4-(3-chloro-4-(9-(3-chloro-5-fluorobenzyl)-6-(1-methylcyclopropoxy)-9H-purin-8-yl)phenoxy)-2-methylbutanoic acid] was run?
Answer: The value was 6.8.

same assay, conditions: Homo sapiens, DLD-1, 288 h, DLD-1 BRCA2−/− cells, 12 days; read-out: POLQ PD Prolif Lumin BRCA2 −/− mean pIC50 (converted)

Question: Which IC50 does the source give for CC(Cc1ccccn1)n1c(-c2ccc(OCCN3CCNCC3)cc2Cl)nc2c(OC3(C)CC3)ncnc21 (single isomer, unassigned) [Example S7, 8-(2-chloro-4-(2-(piperazin-1-yl)ethoxy)phenyl)-6-(1-methylcyclopropoxy)-9-(1-(pyridin-2-yl)propan-2-yl)-9H-purine] here?
Answer: Its IC50 is 6310 nM.

same assay, conditions: Homo sapiens, DLD-1, DLD-1 BRCA2-/- proliferation; column head only partly shown; read-out: POLQ PD Prolif Lumin (converted)

Question: With CC(CCOc1ccc(-c2nc3c(OC4(C)CC4)ncnc3n2Cc2cccc(F)c2F)c(Cl)c1)C(=O)O (single isomer, unassigned) [Example T261, 4-(3-chloro-4-(9-(2,3-difluorobenzyl)-6-(1-methylcyclopropoxy)-9H-purin-8-yl)phenoxy)-2-methylbutanoic acid] as the compound, how does the IC50 read?
Answer: The IC50 was 631 nM.

Question: For CC(CCOc1ccc(-c2nc3c(OC4(C)CC4)ncnc3n2Cc2c(F)cccc2F)c(Cl)c1)C(=O)O (single isomer, unassigned) [Example T263, 4-(3-chloro-4-(9-(2,6-difluorobenzyl)-6-(1-methylcyclopropoxy)-9H-purin-8-yl)phenoxy)-2-methylbutanoic acid], which IC50 is on record?
Answer: Its IC50 is 794 nM.

Question: CC(CCOc1ccc(-c2nc3c(OC4(C)CC4)ncnc3n2Cc2cccc(Cl)c2F)c(Cl)c1)C(=O)O (single isomer, unassigned) [Example T270, 4-(3-chloro-4-(9-(3-chloro-2-fluorobenzyl)-6-(1-methylcyclopropoxy)-9H-purin-8-yl)phenoxy)-2-methylbutanoic acid] was tested. Which IC50 did it give?
Answer: Its IC50 is 501 nM.

Question: CC(CCOc1ccc(-c2nc3c(OC4(C)CC4)ncnc3n2Cc2cc(F)cc(Cl)c2)c(Cl)c1)C(=O)O (single isomer, unassigned) [Example T272, 4-(3-chloro-4-(9-(3-chloro-5-fluorobenzyl)-6-(1-methylcyclopropoxy)-9H-purin-8-yl)phenoxy)-2-methylbutanoic acid] was tested. Which IC50 did it give?
Answer: Its IC50 is 200 nM.

same assay, conditions: Homo sapiens, DLD-1, DLD-1 BRCA2 −/−, mean; read-out: POLQ PD Prolif Lumin BRCA2 −/− mean pIC50 (converted)

Question: Which IC50 does the source give for CC(CCOc1ccc(-c2nc3c(OC4(C)CC4)ncnc3n2Cc2cc(C(F)(F)F)cc(Cl)c2F)c(Cl)c1)C(=O)O (racemic) [Example U35, 4-(3-chloro-4-(9-(3-chloro-2-fluoro-5-(trifluoromethyl)benzyl)-6-(1-methylcyclopropoxy)-9H-purin-8-yl)phenoxy)-2-methylbutanoic acid] here?
Answer: Its IC50 is 158 nM.

Question: Which IC50 does the source give for Cc1ccc(Cl)cc1Cn1c(-c2ccc(OCCC(C)C(=O)O)cc2Cl)nc2c(OC3(C)CC3)ncnc21 (racemic) [Example U36, 4-(3-chloro-4-(9-(5-chloro-2-methylbenzyl)-6-(1-methylcyclopropoxy)-9H-purin-8-yl)phenoxy)-2-methylbutanoic acid] here?
Answer: Its IC50 is 316 nM.

Question: With CC(CCOc1ccc(-c2nc3c(OC4(C)CC4)ncnc3n2Cc2cccc(Cl)c2C#N)c(Cl)c1)C(=O)O (racemic) [Example U37, 4-(3-chloro-4-(9-(3-chloro-2-cyanobenzyl)-6-(1-methylcyclopropoxy)-9H-purin-8-yl)phenoxy)-2-methylbutanoic acid] as the compound, how does the IC50 read?
Answer: The IC50 was 2000 nM.

Question: Which IC50 does the source give for CC(COc1ccc(-c2nc3c(OC4(C)CC4)ncnc3n2Cc2cc(Cl)ccc2F)c(Cl)c1)CC(=O)O (racemic) [Example U45, 4-(3-chloro-4-(9-(5-chloro-2-fluorobenzyl)-6-(1-methylcyclopropoxy)-9H-purin-8-yl)phenoxy)-3-methylbutanoic acid] here?
Answer: The IC50 was 79.4 nM.

Question: With COc1ncc(Cl)cc1Cn1c(-c2ccc(OCCC(C)C(=O)O)cc2Cl)nc2c(OC3(C)CC3)ncnc21 (racemic) [Example U53, 4-(3-chloro-4-(9-((5-chloro-2-methoxypyridin-3-yl)methyl)-6-(1-methylcyclopropoxy)-9H-purin-8-yl)phenoxy)-2-methylbutanoic acid] as the compound, how does the IC50 read?
Answer: Its IC50 is 316 nM.

Question: How did the IC50 turn out when CCOc1ccc(Cl)cc1Cn1c(-c2ccc(OCCC(C)C(=O)O)cc2Cl)nc2c(OC3(C)CC3)ncnc21 (racemic) [Example U59, 4-(3-chloro-4-(9-(5-chloro-2-ethoxybenzyl)-6-(1-methylcyclopropoxy)-9H-purin-8-yl)phenoxy)-2-methylbutanoic acid] was run?
Answer: Its IC50 is 63.1 nM.

Question: For CC(CCOc1ccc(-c2nc3c(OC4(C)CC4)ncnc3n2Cc2cc(Cl)ccc2OC(F)F)c(Cl)c1)C(=O)O (racemic) [Example U60, 4-(3-chloro-4-(9-(5-chloro-2-(difluoromethoxy)benzyl)-6-(1-methylcyclopropoxy)-9H-purin-8-yl)phenoxy)-2-methylbutanoic acid], which IC50 is on record?
Answer: Its IC50 is 126 nM.

Question: With COc1c(F)cc(Cl)cc1Cn1c(-c2ccc(OCCC(C)C(=O)O)cc2Cl)nc2c(OC3(C)CC3)ncnc21 (racemic) [Example U61, 4-(3-chloro-4-(9-(5-chloro-3-fluoro-2-methoxybenzyl)-6-(1-methylcyclopropoxy)-9H-purin-8-yl)phenoxy)-2-methylbutanoic acid] as the compound, how does the IC50 read?
Answer: Its IC50 is 158 nM.

same assay, conditions: Homo sapiens, DLD-1, first proliferation column (c5), taken as DLD-1 BRCA2-/-; read-out: POLQ PD Prolif Lumin (converted)

Question: How did the IC50 turn out when Cc1ccnc(Cn2c(-c3ccc(O[C@@H]4CC[C@@H](O)C4)cc3Cl)nc3c(OC4(C)CC4)ncnc32)c1 (relative stereo) [Example T330, rel-(1R,3R)-3-(3-chloro-4-(6-(1-methylcyclopropoxy)-9-((4-methylpyridin-2-yl)methyl)-9H-purin-8-yl)phenoxy)cyclopentan-1-ol] was run?
Answer: The IC50 was 200 nM.

same assay, conditions: Homo sapiens, DLD-1, first proliferation column (c5); DLD-1 BRCA2-/-; read-out: POLQ PD Prolif Lumin (converted)

Question: Cc1ccnc(Cn2c(-c3ccc(OCC(F)CO)cc3Cl)nc3c(OC4(C)CC4)ncnc32)c1 (single isomer, unassigned) [Example T109, 3-(3-chloro-4-(6-(1-methylcyclopropoxy)-9-((4-methylpyridin-2-yl)methyl)-9H-purin-8-yl)phenoxy)-2-fluoropropan-1-ol] was tested. Which IC50 did it give?
Answer: The IC50 was 158 nM.

Question: How did the IC50 turn out when Cc1ccnc(Cn2c(-c3ccc(OC(C)CO)cc3Cl)nc3c(OC4(C)CC4)ncnc32)c1 (single isomer, unassigned) [Example T127, 2-(3-chloro-4-(6-(1-methylcyclopropoxy)-9-((4-methylpyridin-2-yl)methyl)-9H-purin-8-yl)phenoxy)propan-1-ol] was run?
Answer: The IC50 was 251 nM.

Question: Cc1ccnc(Cn2c(-c3ccc(C4CCC(=O)N4)cc3Cl)nc3c(OC4(C)CC4)ncnc32)c1 (single isomer, unassigned) [Example T172, 5-(3-chloro-4-(6-(1-methylcyclopropoxy)-9-((4-methylpyridin-2-yl)methyl)-9H-purin-8-yl)phenyl)pyrrolidin-2-one] was tested. Which IC50 did it give?
Answer: The IC50 was 398 nM.

Question: Which IC50 does the source give for Cc1ccnc(Cn2c(-c3ccc(C4CNC(=O)C4)cc3Cl)nc3c(OC4(C)CC4)ncnc32)c1 (single isomer, unassigned) [Example T174, 4-(3-chloro-4-(6-(1-methylcyclopropoxy)-9-((4-methylpyridin-2-yl)methyl)-9H-purin-8-yl)phenyl)pyrrolidin-2-one] here?
Answer: Its IC50 is 501 nM.

same assay, conditions: Homo sapiens, DLD-1, first proliferation column; DLD-1 BRCA2-/-; read-out: POLQ PD Prolif Lumin (converted)

Question: CC1(Oc2ncnc3c2nc(-c2ccc(OCCN4C[C@H]5CC[C@@H]4CN5)cc2Cl)n3Cc2ccccc2)CC1 (relative stereo) [Example T604, rel-(1R,4R)-2-(2-(4-(9-benzyl-6-(1-methylcyclopropoxy)-9H-purin-8-yl)-3-chlorophenoxy)ethyl)-2,5-diazabicyclo[2.2.2]octane] was tested. Which IC50 did it give?
Answer: Its IC50 is 251 nM.
